Data: ChEMBL document CHEMBL2073782, “Comparative inhibitory effects of different compounds on rat oatpl (slc21a1)- and Oatp2 (Slc21a5)-mediated transport” (Pharm Res, 2002)

What was measured:
[1] = target: T1, Oatp1 (Solute carrier organic anion transporter family member 1A1) (Rattus norvegicus, UniProt P46720); assay: TP_TRANSPORTER: inhibition of E217betaG uptake (E217betaG: 0.1 uM, Verapamil: 1000 uM) in Oatp1-expressing LLC-PK1 cells; type: functional, cell-based; parameters: scale not given: the % may be the effect or the level left; conditions: pig, probe E217betaG, read-out: Activity
T1 sequence (P46720 whole entry): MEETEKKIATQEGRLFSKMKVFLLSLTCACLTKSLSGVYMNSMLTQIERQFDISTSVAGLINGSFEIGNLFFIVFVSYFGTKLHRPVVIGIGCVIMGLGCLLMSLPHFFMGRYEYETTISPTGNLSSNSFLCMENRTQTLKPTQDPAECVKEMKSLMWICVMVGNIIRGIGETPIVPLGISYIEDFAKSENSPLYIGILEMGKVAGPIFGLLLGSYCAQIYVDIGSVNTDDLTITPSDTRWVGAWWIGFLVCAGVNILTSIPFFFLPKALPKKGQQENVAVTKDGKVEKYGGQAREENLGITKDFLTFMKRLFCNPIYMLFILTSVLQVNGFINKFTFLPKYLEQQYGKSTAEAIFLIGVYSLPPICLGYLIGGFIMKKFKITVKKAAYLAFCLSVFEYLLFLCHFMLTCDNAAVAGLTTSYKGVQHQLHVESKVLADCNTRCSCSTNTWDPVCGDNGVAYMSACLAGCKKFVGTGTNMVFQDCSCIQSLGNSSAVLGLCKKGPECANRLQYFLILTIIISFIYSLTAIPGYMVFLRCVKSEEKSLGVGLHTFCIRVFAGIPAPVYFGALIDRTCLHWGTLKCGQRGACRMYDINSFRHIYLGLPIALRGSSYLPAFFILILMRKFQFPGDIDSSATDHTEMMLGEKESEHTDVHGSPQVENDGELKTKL

[2] = target: T2, Oatp2 (Solute carrier organic anion transporter family member 1A4) (Rattus norvegicus, UniProt O35913); assay: TP_TRANSPORTER: inhibition of Digoxin uptake (Digoxin: 0.05 uM, Verapamil: 1000 uM) in Oatp2-expressing LLC-PK1 cells; type: functional, cell-based; parameters: scale not given: the % may be the effect or the level left; conditions: pig, probe Digoxin, read-out: Activity
T2 sequence (O35913 whole entry): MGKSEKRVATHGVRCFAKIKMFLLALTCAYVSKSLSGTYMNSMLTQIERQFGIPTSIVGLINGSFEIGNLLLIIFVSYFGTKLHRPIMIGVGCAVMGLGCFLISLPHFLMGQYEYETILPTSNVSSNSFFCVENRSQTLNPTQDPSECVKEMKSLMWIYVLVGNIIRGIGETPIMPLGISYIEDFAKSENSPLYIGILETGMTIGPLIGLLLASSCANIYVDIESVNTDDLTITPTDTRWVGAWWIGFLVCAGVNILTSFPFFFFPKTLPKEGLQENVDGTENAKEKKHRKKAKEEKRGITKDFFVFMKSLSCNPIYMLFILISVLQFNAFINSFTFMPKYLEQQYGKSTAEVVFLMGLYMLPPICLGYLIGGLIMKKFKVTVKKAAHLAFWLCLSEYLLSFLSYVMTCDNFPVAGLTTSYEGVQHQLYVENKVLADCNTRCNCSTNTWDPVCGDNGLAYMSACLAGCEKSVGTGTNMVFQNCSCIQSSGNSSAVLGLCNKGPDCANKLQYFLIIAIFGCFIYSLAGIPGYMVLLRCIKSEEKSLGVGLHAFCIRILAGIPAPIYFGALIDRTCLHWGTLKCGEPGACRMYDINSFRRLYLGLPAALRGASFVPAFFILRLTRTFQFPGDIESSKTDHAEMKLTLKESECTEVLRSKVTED

[3] = target: T2, Oatp2 (Solute carrier organic anion transporter family member 1A4); assay: TP_TRANSPORTER: inhibition of Digoxin uptake (Digoxin: 0.05 uM, Corticosterone: 100 uM) in Oatp2-expressing LLC-PK1 cells; type: functional, cell-based; parameters: scale not given: the % may be the effect or the level left; conditions: pig, probe Digoxin, read-out: Activity
[4] = target: T1, Oatp1 (Solute carrier organic anion transporter family member 1A1); assay: TP_TRANSPORTER: inhibition of E217betaG uptake (E217betaG: 0.1 uM, Deoxycorticosterone: 100 uM) in Oatp1-expressing LLC-PK1 cells; type: functional, cell-based; parameters: scale not given: the % may be the effect or the level left; conditions: pig, probe E217betaG, read-out: Activity
[5] = target: T2, Oatp2 (Solute carrier organic anion transporter family member 1A4); assay: TP_TRANSPORTER: inhibition of Digoxin uptake (Digoxin: 0.05 uM, Deoxycorticosterone: 100 uM) in Oatp2-expressing LLC-PK1 cells; type: functional, cell-based; parameters: scale not given: the % may be the effect or the level left; conditions: pig, probe Digoxin, read-out: Activity
[6] = target: T1, Oatp1 (Solute carrier organic anion transporter family member 1A1); assay: TP_TRANSPORTER: inhibition of E217betaG uptake (E217betaG: 0.1 uM, Glibenclamide: 1000 uM) in Oatp1-expressing LLC-PK1 cells; type: functional, cell-based; parameters: scale not given: the % may be the effect or the level left; conditions: pig, probe E217betaG, read-out: Activity
[7] = target: T2, Oatp2 (Solute carrier organic anion transporter family member 1A4); assay: TP_TRANSPORTER: inhibition of Digoxin uptake (Digoxin: 0.05 uM, Glibenclamide: 1000 uM) in Oatp2-expressing LLC-PK1 cells; type: functional, cell-based; parameters: scale not given: the % may be the effect or the level left; conditions: pig, probe Digoxin, read-out: Activity
[8] = target: T3, Solute carrier organic anion transporter family member 1A1 (Rattus norvegicus, UniProt P46720); assay: TP_TRANSPORTER: inhibition of E217betaG uptake in Oatp1-expressing LLC-PK1 cells; type: functional, cell-based
T3 sequence (P46720 whole entry): T1 sequence (P46720 whole entry)

[9] = target: T4, Solute carrier organic anion transporter family member 1A4 (Rattus norvegicus, UniProt O35913); assay: TP_TRANSPORTER: inhibition of Digoxin uptake in Oatp2-expressing LLC-PK1 cells; type: functional, cell-based
T4 sequence (O35913 whole entry): T2 sequence (O35913 whole entry)

[10] = target: T1, Oatp1 (Solute carrier organic anion transporter family member 1A1); assay: TP_TRANSPORTER: inhibition of E217betaG uptake (E217betaG: 0.1 uM, Indomethacin: 1000 uM) in Oatp1-expressing LLC-PK1 cells; type: functional, cell-based; parameters: scale not given: the % may be the effect or the level left; conditions: pig, probe E217betaG, read-out: Activity
[11] = target: T2, Oatp2 (Solute carrier organic anion transporter family member 1A4); assay: TP_TRANSPORTER: inhibition of Digoxin uptake (Digoxin: 0.05 uM, Indomethacin: 1000 uM) in Oatp2-expressing LLC-PK1 cells; type: functional, cell-based; parameters: scale not given: the % may be the effect or the level left; conditions: pig, probe Digoxin, read-out: Activity
[12] = target: T1, Oatp1 (Solute carrier organic anion transporter family member 1A1); assay: TP_TRANSPORTER: inhibition of E217betaG uptake (E217betaG: 0.1 uM, Ketoprofen: 1000 uM) in Oatp1-expressing LLC-PK1 cells; type: functional, cell-based; parameters: scale not given: the % may be the effect or the level left; conditions: pig, probe E217betaG, read-out: Activity
[13] = target: T2, Oatp2 (Solute carrier organic anion transporter family member 1A4); assay: TP_TRANSPORTER: inhibition of Digoxin uptake (Digoxin: 0.05 uM, Ketoprofen: 1000 uM) in Oatp2-expressing LLC-PK1 cells; type: functional, cell-based; parameters: scale not given: the % may be the effect or the level left; conditions: pig, probe Digoxin, read-out: Activity
[14] = target: T1, Oatp1 (Solute carrier organic anion transporter family member 1A1); assay: in vitro; conditions: pig, Oatp1-expressing LLC-PK1 cells, probe E217betaG
[15] = target: T2, Oatp2 (Solute carrier organic anion transporter family member 1A4); assay: in vitro; conditions: pig, Oatp2-expressing LLC-PK1 cells, probe Digoxin
[16] = target: T1, Oatp1 (Solute carrier organic anion transporter family member 1A1); assay: TP_TRANSPORTER: inhibition of E217betaG uptake (E217betaG: 0.1 uM, Tolbutamide: 1000 uM) in Oatp1-expressing LLC-PK1 cells; type: functional, cell-based; parameters: scale not given: the % may be the effect or the level left; conditions: pig, probe E217betaG, read-out: Activity
[17] = target: T2, Oatp2 (Solute carrier organic anion transporter family member 1A4); assay: TP_TRANSPORTER: inhibition of Digoxin uptake (Digoxin: 0.05 uM, Tolbutamide: 1000 uM) in Oatp2-expressing LLC-PK1 cells; type: functional, cell-based; parameters: scale not given: the % may be the effect or the level left; conditions: pig, probe Digoxin, read-out: Activity
[18] = substrate: C[C@]12CC[C@@H]3c4ccc(O)cc4CC[C@H]3[C@@H]1CC[C@@H]2O[C@@H]1O[C@H](C(=O)O)[C@@H](O)[C@H](O)[C@H]1O; assay: TP_TRANSPORTER: uptake in Oatp1-expressing LLC-PK1 cells; type: functional, cell-based
[19] = substrate: C[C@H]1O[C@@H](O[C@H]2[C@@H](O)C[C@H](O[C@H]3[C@@H](O)C[C@H](O[C@H]4CC[C@@]5(C)[C@H](CC[C@@H]6[C@@H]5C[C@@H](O)[C@]5(C)[C@@H](C7=CC(=O)OC7)CC[C@]65O)C4)O[C@@H]3C)O[C@@H]2C)C[C@H](O)[C@@H]1O; assay: TP_TRANSPORTER: uptake in Oatp2-expressing LLC-PK1 cells; type: functional, cell-based

Molecule: COc1ccc(CCN(C)CCCC(C#N)(c2ccc(OC)c(OC)c2)C(C)C)cc1OC (stereo not drawn)
- activity at 1000 µM [1]: 3.93%
- activity at 1000 µM [2]: 4.12%

Molecule: C[C@]12C[C@H](O)[C@H]3[C@@H](CCC4=CC(=O)CC[C@@]43C)[C@@H]1CC[C@@H]2C(=O)CO [CORTICOSTERONE]
- activity at 100 µM [3]: 32.9%

Molecule: C[C@]12CC[C@H]3[C@@H](CCC4=CC(=O)CC[C@@]43C)[C@@H]1CC[C@@H]2C(=O)CO [DESOXYCORTICOSTERONE]
- activity at 100 µM [4]: 1.34%
- activity at 100 µM [5]: 13.6%

Molecule: COc1ccc(Cl)cc1C(=O)NCCc1ccc(S(=O)(=O)NC(=O)NC2CCCCC2)cc1 [GLYBURIDE]
- activity at 1000 µM [6]: 2.33%
- activity at 1000 µM [7]: 1.61%

Molecule: CC(C)Cc1ccc(C(C)C(=O)O)cc1 (stereo not drawn) [IBUPROFEN]
- Ki [8]: 126 µM
- Ki [9]: 2430 µM

Molecule: COc1ccc2c(c1)c(CC(=O)O)c(C)n2C(=O)c1ccc(Cl)cc1 [INDOMETHACIN]
- activity at 1000 µM [10]: 1.16%
- activity at 1000 µM [11]: 14.3%

Molecule: CC(C(=O)O)c1cccc(C(=O)c2ccccc2)c1 (stereo not drawn) [KETOPROFEN]
- activity at 1000 µM [12]: 6.89%
- activity at 1000 µM [13]: 30.2%

Molecule: COc1ccc2cc([C@H](C)C(=O)O)ccc2c1 [NAPROXEN]
- activity at 1000 µM [14]: 19.9%
- activity at 1000 µM [15]: 52.2%

Molecule: C=C[C@H]1C[N@@]2CC[C@H]1C[C@@H]2[C@@H](O)c1ccnc2ccc(OC)cc12 [QUINIDINE]
- Ki [9]: 120 µM

Molecule: C=C[C@H]1C[N@@]2CC[C@H]1C[C@H]2[C@H](O)c1ccnc2ccc(OC)cc12 [QUININE]
- Ki [9]: 3.81 µM

Molecule: CO[C@H]1/C=C/O[C@@]2(C)Oc3c(C)c(O)c4c(O)c(c(/C=N/N5CCN(C)CC5)c(O)c4c3C2=O)NC(=O)/C(C)=C\C=C\[C@H](C)[C@H](O)[C@@H](C)[C@@H](O)[C@@H](C)[C@H](OC(C)=O)[C@@H]1C [RIFAMPIN]
- Ki [8]: 18.2 µM
- Ki [9]: 1.46 µM

Molecule: CCCCNC(=O)NS(=O)(=O)c1ccc(C)cc1 [TOLBUTAMIDE]
- activity at 1000 µM [16]: 32.9%
- activity at 1000 µM [17]: 47.3%

B1: Solute carrier organic anion transporter family member 1A1 (Rattus norvegicus) (protein)
chain: T1 sequence (P46720 whole entry)
- Km [18]: 11.2 µM

B2: Solute carrier organic anion transporter family member 1A4 (Rattus norvegicus) (protein)
chain: T2 sequence (O35913 whole entry)
- Km [19]: 0.279 µM
